In patent publication US10844077B2, “Thiazolyl-containing compounds for treating proliferative diseases” (Dana-Farber Cancer Institute, Inc., priority 2014, dated 2020):
Several values for one entry are separate records, joined by “and”; a condition that tells them apart may be missing. Equal entries are not always repeated.

Key:
Test in all cases: KINATIV assay
Format in all cases: cell-based
Details in all cases: 1 μM, 90 minutes, BCWM.1 cells
IRE1 = IRE1 (Homo sapiens (Human), UniProt O75460)
Experimental: (§1) The cells were harvested and lysed. The lysates were directly labeled with an ATP-biotin probe. Bound kinases were identified and quantitated by ACTIVX as described in Patricelli et al., Biochemistry, 2007, 46(2): 350-358. The compounds were tested in duplicates against duplicate or quadruplicate control samples.

OSR1 = OSR1 (Homo sapiens (Human), UniProt O95747)
Experimental: as §1

eEF2K = eEF2K (Homo sapiens (Human), UniProt O00418)
Experimental: as §1

MSK2 domain1 = MSK2 domain1 (Homo sapiens (Human), UniProt O75676)
Experimental: as §1

PEK = PEK (Homo sapiens (Human), UniProt Q9NZJ5)
Experimental: as §1

MASTL = MASTL (Homo sapiens (Human), UniProt Q96GX5)
Experimental: as §1

PIP4K2C = PIP4K2C (Homo sapiens (Human), UniProt Q8TBX8)
Experimental: as §1

BLK = BLK (Homo sapiens (Human), UniProt P51451)
Experimental: as §1

PI4KB = PI4KB (Homo sapiens (Human), UniProt Q9UBF8)
Experimental: as §1

BTK = BTK (Homo sapiens (Human), UniProt Q06187)
Experimental: as §1

SRPK1 = SRPK1 (Homo sapiens (Human), UniProt Q96SB4)
Experimental: as §1

NEK2 = NEK2 (Homo sapiens (Human), UniProt P51955)
Experimental: as §1

NLK = NLK (Homo sapiens (Human), UniProt Q9UBE8)
Experimental: as §1

CSK = CSK (Homo sapiens (Human), UniProt P41240)
Experimental: as §1

MST1 = MST1 (Homo sapiens (Human), UniProt Q13043)
Experimental: as §1

CDK6 = CDK6 (Homo sapiens (Human), UniProt Q00534)
Experimental: as §1

EphB1 = EphB1 (Homo sapiens (Human), UniProt P54762)
Experimental: as §1

MAP3K2, MAP3K3 = test system: MAP3K2, MAP3K3
Experimental: as §1

MST2 = MST2 (Homo sapiens (Human), UniProt Q13188)
Experimental: as §1

MST4 = MST4 (Homo sapiens (Human), UniProt Q9P289)
Experimental: as §1

MELK = MELK (Homo sapiens (Human), UniProt Q14680)
Experimental: as §1

IKKa = IKKa (Homo sapiens (Human), UniProt O15111)
Experimental: as §1

MSK1 domain1 = MSK1 domain1 (Homo sapiens (Human), UniProt O75582)
Experimental: as §1

RSK3 domain1 = RSK3 domain1 (Homo sapiens (Human), UniProt Q15349)
Experimental: as §1

FRK = FRK (Homo sapiens (Human), UniProt P42685)
Experimental: as §1

MARK3 = MARK3 (Homo sapiens (Human), UniProt P27448)
Experimental: as §1

MAP3K3 = MAP3K3 (Homo sapiens (Human), UniProt Q99759)
Experimental: as §1

PKD2 = PKD2 (Homo sapiens (Human), UniProt Q9BZL6)
Experimental: as §1

MSK1, MSK2 domain1 = test system: MSK1, MSK2 domain1
Experimental: as §1

EphB2 = EphB2 (Homo sapiens (Human), UniProt P29323)
Experimental: as §1

IRAK1 = IRAK1 (Homo sapiens (Human), UniProt P51617)
Experimental: as §1

BARK1 = BARK1 (Homo sapiens (Human), UniProt P25098)
Experimental: as §1

AKT1 = AKT1 (Homo sapiens (Human), UniProt P31749)
Experimental: as §1

TAK1 = TAK1 (Homo sapiens (Human), UniProt O43318)
Experimental: as §1

VRK2 = VRK2 (Homo sapiens (Human), UniProt Q86Y07)
Experimental: as §1

NEK3 = NEK3 (Homo sapiens (Human), UniProt P51956)
Experimental: as §1

Wnk1, Wnk2, Wnk4 = test system: Wnk1, Wnk2, Wnk4
Experimental: as §1

p70S6K = p70S6K (Homo sapiens (Human), UniProt P23443)
Experimental: as §1

RSK3 = RSK3 (Homo sapiens (Human), UniProt Q15349)
Experimental: as §1

PITSLRE = test system: PITSLRE
Experimental: as §1

STK33 = STK33 (Homo sapiens (Human), UniProt Q9BYT3)
Experimental: as §1

Sequence of MASTL (Q96GX5 whole entry): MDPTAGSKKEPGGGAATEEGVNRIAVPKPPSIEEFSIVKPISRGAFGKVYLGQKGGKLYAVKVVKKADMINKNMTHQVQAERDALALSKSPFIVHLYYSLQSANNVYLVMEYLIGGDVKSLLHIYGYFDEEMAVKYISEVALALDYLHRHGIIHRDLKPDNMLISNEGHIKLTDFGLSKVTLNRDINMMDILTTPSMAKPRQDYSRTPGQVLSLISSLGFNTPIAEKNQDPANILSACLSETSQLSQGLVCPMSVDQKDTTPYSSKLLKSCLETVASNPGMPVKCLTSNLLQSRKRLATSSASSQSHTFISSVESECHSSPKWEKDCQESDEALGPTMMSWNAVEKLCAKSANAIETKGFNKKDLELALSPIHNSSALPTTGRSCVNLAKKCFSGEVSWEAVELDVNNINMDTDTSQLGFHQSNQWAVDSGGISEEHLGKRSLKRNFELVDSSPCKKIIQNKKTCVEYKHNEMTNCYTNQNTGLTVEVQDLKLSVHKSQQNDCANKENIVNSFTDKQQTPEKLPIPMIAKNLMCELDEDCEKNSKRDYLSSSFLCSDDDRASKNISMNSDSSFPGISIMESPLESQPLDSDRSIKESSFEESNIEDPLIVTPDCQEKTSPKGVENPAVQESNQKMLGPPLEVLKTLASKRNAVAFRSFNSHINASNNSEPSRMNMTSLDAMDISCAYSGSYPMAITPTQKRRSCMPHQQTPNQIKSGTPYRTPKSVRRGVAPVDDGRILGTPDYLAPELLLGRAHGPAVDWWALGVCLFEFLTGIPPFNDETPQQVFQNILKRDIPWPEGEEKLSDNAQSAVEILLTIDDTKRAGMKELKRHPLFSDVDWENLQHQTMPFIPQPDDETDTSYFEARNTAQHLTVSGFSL
Sequence of PI4KB (Q9UBF8 whole entry): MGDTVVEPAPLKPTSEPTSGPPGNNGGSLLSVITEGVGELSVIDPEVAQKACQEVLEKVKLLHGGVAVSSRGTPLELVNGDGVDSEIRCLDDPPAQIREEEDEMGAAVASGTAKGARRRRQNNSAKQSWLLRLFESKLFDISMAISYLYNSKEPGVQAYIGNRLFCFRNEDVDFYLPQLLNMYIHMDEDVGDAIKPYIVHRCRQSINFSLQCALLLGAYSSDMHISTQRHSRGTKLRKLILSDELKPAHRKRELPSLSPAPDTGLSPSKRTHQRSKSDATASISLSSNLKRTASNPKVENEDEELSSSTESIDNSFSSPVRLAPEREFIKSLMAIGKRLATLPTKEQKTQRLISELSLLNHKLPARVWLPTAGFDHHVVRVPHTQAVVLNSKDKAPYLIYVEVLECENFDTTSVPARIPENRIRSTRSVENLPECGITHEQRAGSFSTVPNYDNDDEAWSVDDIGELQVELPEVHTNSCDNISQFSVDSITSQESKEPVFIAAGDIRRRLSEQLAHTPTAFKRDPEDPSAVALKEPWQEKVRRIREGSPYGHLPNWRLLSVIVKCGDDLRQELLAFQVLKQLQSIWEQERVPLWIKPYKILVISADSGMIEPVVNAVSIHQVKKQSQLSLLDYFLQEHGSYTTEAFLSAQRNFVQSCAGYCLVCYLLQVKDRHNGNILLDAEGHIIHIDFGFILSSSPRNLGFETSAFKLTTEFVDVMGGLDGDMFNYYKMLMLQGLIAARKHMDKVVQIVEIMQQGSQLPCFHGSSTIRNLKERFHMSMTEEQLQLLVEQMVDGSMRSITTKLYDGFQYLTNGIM
Sequence of CSK (P41240 whole entry): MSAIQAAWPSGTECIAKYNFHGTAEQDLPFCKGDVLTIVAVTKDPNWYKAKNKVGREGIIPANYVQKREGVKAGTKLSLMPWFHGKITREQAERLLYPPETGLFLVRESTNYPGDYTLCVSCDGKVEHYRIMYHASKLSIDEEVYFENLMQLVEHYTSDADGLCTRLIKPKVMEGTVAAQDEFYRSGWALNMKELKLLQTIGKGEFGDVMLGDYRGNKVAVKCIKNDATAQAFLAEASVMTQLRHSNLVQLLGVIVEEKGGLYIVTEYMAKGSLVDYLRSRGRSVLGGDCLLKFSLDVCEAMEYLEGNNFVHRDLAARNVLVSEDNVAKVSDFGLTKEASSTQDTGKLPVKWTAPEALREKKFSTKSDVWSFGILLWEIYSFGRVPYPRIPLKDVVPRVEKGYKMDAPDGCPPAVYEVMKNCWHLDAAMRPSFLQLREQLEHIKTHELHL
Sequence of BTK (Q06187 whole entry, looked up): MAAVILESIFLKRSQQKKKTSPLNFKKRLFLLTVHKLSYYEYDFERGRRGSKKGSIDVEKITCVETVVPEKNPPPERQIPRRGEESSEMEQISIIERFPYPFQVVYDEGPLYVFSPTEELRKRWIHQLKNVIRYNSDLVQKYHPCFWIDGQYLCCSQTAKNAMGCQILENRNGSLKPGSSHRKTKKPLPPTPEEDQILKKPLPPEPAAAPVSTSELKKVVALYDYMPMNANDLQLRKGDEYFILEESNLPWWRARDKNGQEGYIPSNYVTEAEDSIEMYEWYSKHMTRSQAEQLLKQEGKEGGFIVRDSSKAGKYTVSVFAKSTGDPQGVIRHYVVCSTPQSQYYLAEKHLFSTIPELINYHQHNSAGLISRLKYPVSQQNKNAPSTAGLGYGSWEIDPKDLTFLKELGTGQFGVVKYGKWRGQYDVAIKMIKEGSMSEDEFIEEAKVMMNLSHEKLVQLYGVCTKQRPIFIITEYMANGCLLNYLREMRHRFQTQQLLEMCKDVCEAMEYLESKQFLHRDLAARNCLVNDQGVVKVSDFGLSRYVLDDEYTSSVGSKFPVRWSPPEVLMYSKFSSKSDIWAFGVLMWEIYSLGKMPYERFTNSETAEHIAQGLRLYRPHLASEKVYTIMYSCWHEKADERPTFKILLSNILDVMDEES
Sequence of PEK (Q9NZJ5 30-1116): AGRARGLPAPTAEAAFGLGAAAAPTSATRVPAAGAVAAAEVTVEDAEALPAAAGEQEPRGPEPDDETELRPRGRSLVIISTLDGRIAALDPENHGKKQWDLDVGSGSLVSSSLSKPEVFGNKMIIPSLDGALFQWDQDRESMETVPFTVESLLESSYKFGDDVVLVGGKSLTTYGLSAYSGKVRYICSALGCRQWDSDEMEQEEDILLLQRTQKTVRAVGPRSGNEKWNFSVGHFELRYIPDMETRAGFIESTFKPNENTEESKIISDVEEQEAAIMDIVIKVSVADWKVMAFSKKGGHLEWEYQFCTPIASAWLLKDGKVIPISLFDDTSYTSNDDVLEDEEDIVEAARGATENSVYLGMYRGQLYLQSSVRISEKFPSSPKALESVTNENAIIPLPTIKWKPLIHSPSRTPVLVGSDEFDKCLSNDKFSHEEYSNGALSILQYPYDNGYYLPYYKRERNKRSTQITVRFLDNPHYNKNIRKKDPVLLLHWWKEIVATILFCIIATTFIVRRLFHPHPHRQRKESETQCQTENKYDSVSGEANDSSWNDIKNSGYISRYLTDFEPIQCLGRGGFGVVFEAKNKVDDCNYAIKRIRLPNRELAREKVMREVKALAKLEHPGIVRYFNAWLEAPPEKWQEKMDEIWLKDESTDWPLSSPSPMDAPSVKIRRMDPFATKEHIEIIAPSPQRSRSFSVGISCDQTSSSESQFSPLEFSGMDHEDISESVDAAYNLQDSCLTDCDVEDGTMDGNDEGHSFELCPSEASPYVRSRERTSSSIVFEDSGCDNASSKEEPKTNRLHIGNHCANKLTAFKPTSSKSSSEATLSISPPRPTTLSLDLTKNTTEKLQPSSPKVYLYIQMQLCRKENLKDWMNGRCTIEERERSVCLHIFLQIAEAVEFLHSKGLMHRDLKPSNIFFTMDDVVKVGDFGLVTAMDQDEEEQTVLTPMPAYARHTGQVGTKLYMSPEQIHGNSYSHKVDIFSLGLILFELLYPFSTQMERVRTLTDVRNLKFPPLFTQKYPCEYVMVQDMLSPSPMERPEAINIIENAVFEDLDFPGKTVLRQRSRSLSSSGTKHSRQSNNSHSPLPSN
Sequence of STK33 (Q9BYT3 whole entry): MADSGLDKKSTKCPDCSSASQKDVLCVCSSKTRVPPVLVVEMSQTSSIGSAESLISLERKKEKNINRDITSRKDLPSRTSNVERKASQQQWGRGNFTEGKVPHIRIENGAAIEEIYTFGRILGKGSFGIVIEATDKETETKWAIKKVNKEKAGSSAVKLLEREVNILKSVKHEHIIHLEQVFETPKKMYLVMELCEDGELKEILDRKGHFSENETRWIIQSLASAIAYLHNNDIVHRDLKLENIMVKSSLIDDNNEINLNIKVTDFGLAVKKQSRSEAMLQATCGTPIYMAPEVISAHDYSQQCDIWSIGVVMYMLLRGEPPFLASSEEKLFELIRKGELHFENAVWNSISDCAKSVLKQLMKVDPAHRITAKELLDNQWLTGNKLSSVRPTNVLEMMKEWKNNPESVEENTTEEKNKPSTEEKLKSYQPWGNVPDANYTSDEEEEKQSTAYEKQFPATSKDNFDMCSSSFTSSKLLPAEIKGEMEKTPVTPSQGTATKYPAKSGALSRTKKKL
Sequence of TAK1 (O43318 whole entry): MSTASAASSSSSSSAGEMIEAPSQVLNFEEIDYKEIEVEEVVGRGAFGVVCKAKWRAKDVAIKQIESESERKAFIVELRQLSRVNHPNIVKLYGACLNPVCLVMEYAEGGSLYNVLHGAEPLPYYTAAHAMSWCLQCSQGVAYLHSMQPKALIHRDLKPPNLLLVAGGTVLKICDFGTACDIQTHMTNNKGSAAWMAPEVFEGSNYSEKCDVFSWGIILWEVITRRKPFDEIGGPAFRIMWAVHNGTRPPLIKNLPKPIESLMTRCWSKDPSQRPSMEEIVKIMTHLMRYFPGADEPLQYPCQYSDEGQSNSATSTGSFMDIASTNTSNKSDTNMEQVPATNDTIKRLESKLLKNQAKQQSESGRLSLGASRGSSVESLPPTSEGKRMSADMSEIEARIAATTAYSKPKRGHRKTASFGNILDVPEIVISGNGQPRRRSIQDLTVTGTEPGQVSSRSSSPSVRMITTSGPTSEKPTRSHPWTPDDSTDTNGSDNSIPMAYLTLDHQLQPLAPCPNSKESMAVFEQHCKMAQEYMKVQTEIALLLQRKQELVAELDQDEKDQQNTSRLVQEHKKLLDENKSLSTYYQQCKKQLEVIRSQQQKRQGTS

`C=CC(=O)N1CCC(CNc2nccc(Nc3ncc(C(=O)Nc4c(C)cccc4C)s3)n2)C1` (racemic) [Example I-8] was tested, and the “% change of MS signal compared to control sample” value (shortened to “% change of MS signal”) (IRE1) was −1.5%, the “% change of MS signal” value (OSR1) was 27.9% and the “% change of MS signal” value (eEF2K) was −1.5%. The “% change of MS signal” value (MSK2 domain1) was −47.7%, the “% change of MS signal” value (PEK) was 3.3% and the “% change of MS signal” value (MASTL) was −16.9% and −9.5%. For the same molecule, the “% change of MS signal” value (PIP4K2C) was 97.6% and 85.7%, the “% change of MS signal” value (BLK) was over 95% and the “% change of MS signal” value (PI4KB) was 44.2% and 41.9%. The “% change of MS signal” value (BTK) was 98.0% and >90%, the “% change of MS signal” value (SRPK1) was −19.5% and the “% change of MS signal” value (NEK2) was −3.0%. For the same molecule, the “% change of MS signal” value (NLK) was 6.1%, the “% change of MS signal” value (CSK) was 88.1% and 86.2% and the “% change of MS signal” value (MST1) was 2.4%. The “% change of MS signal” value (CDK6) was 4.5%, the “% change of MS signal” value (EphB1) was over 97% and the “% change of MS signal” value (MAP3K2, MAP3K3) was 19.4%. The “% change of MS signal” value (MST2) was 4.3%, the “% change of MS signal” value (MST4) was −0.8% and the “% change of MS signal” value (MELK) was −10.0%. The “% change of MS signal” value (IKKa) was −4.2%, the “% change of MS signal” value (MSK1 domain1) was −45.5% and the “% change of MS signal” value (RSK3 domain1) was −62.5%. For the same molecule, the “% change of MS signal” value (FRK) was 95.3%, the “% change of MS signal” value (MARK3) was 7.8% and the “% change of MS signal” value (MAP3K3) was 7.9%. For the same molecule, the “% change of MS signal” value (PKD2) was 8.7%, the “% change of MS signal” value (MSK1, MSK2 domain1) was −29.7% and the “% change of MS signal” value (EphB2) was over 90%. The “% change of MS signal” value (IRAK1) was 13.6%, the “% change of MS signal” value (BARK1) was −19.6% and the “% change of MS signal” value (AKT1) was −19.5%. The “% change of MS signal” value (TAK1) was 9.7%, the “% change of MS signal” value (VRK2) was 3.6% and the “% change of MS signal” value (NEK3) was 3.2%. The “% change of MS signal” value (Wnk1, Wnk2, Wnk4) was −16.3%, the “% change of MS signal” value (p70S6K) was −36.8% and the “% change of MS signal” value (RSK3) was 2.9%. For the same molecule, the “% change of MS signal” value (PITSLRE) was −16.1% and the “% change of MS signal” value (STK33) was 29.8%.
With `C=CC(=O)N1CCC(Cn2ccc(Nc3ncc(C(=O)Nc4c(C)cccc4Cl)s3)n2)C1` (stereo not drawn) [II-1] the “% change of MS signal” value (IRE1) was −29.5%, the “% change of MS signal” value (OSR1) was 16.4% and the “% change of MS signal” value (eEF2K) was −3.8%. The “% change of MS signal” value (MSK2 domain1) was −33.9%, the “% change of MS signal” value (PEK) was −31.0% and the “% change of MS signal” value (MASTL) was −16.7% and −8.2%. The “% change of MS signal” value (BLK) was over 95%, the “% change of MS signal” value (PI4KB) was 7.2% and 13.7% and the “% change of MS signal” value (BTK) was 97.1% and >90%. The “% change of MS signal” value (SRPK1) was −4.7%, the “% change of MS signal” value (NEK2) was −6.0% and the “% change of MS signal” value (NLK) was 3.7%. The “% change of MS signal” value (CSK) was 26.2% and 32.5%, the “% change of MS signal” value (MST1) was 13.2% and the “% change of MS signal” value (CDK6) was 6.0%. The “% change of MS signal” value (EphB1) was 91.0%, the “% change of MS signal” value (MAP3K2, MAP3K3) was 17.1% and the “% change of MS signal” value (MST2) was 14.7%. The “% change of MS signal” value (MST4) was 21.1%, the “% change of MS signal” value (MELK) was 4.2% and the “% change of MS signal” value (IKKa) was −2.1%. For the same molecule, the “% change of MS signal” value (MSK1 domain1) was −35.0%, the “% change of MS signal” value (RSK3 domain1) was −58.4% and the “% change of MS signal” value (FRK) was 84.0%. For the same molecule, the “% change of MS signal” value (MARK3) was 18.4%, the “% change of MS signal” value (MAP3K3) was 13.7% and the “% change of MS signal” value (PKD2) was 12.7%. For the same molecule, the “% change of MS signal” value (MSK1, MSK2 domain1) was −37.4%, the “% change of MS signal” value (EphB2) was over 90% and the “% change of MS signal” value (IRAK1) was 26.3%. For the same molecule, the “% change of MS signal” value (BARK1) was −23.3%, the “% change of MS signal” value (AKT1) was −17.8% and the “% change of MS signal” value (TAK1) was 25.6%. For the same molecule, the “% change of MS signal” value (VRK2) was 5.2%, the “% change of MS signal” value (NEK3) was 8.1% and the “% change of MS signal” value (Wnk1, Wnk2, Wnk4) was −8.1%. For the same molecule, the “% change of MS signal” value (p70S6K) was −65.4%, the “% change of MS signal” value (RSK3) was 22.3% and the “% change of MS signal” value (PITSLRE) was −16.1%. For the same molecule, the “% change of MS signal” value (STK33) was 11.0%.
